A short description of data set [1]: Long-term solubility and oil stability of cannabinoids in CBC at room temperature. It counts as physicochemical. Conditions: solid cannabinoid in CBC. Here is the method: In an example embodiment, the solubility of a number of solid cannabinoid isolates in concentrations of 10-80 percent by mass were evaluated in CBC, a viscous oil at room-temperature. Solubility is assessed at 25 degrees (Celsius), after heating to 35 degrees (Celsius), after heating to 70 degrees (Celsius), and after heating to 100 degrees (Celsius). The solubility of cannabinoids with CBC is then observed at room temperature at various time points after formulation to determine long-term solubility and oil stability.
The samples were then heated at an appropriate temperature for 15 total minutes in a water bath and then if any of the CBD remained solid, the vial would be heated for 15 minutes at the next temperature level. A glass thermometer was used to observe and record the temperature. All eight vials corresponding to the eight concentrations of CBD in CBC became a homogeneous mass upon 6-8 minutes heating at 70 degrees (Celsius).
The samples were then heated at an appropriate temperature for 15 total minutes in a water bath and then if any of the CBG remained solid the vial would be heated for 15 minutes at the next temperature level. A glass thermometer was used to observe and record the temperature. […] The viscosity of the solution containing 50% CBG (Vial 13) and 60% CBG (Vial 14) increased upon standing for 35 to 40 minutes at room temperature.
The samples were then heated at an appropriate temperature for 15 total minutes in a water bath and then if any of the CBDA remained solid the vial would be heated for 15 minutes at the next temperature level. A glass thermometer was used to observe and record the temperature. […] But no solids were evident after 4 minutes at 100 degrees (Celsius). […] Vials 20 through 24, containing […] CBDA respectively in 10 weight percent increments, were homogenous liquids after 7 minutes at 100° C. The samples containing 30% CBDA to 60% CBDA became very viscous but remained liquid after 20 minutes at room temperature.
After day 1, the samples containing 10% to 80% CBD appeared more viscous but remained homogeneous oils. […]

Data set [2] can be described thus: Solubility of CBG in bisabolol. It counts as physicochemical. The text has this:
Roughly 10% of the original amount of CBG seemed to remain crystalline in the sample containing 30% CBG. Approximately 20% the original amount of CBG remained crystalline in the sample containing 40% CBG. Approximately 30% of the original amount of CBG remained solid in the sample containing 50% CBG and approximately 40% of the original mass of CBG remained solid in the solution containing 60% CBG.

This note sets out measurements from patent US20230285317A1, “DILUENTS, STANDARDIZATION AGENTS AND VISCOSITY CONTROL FOR CANNABINOIDS FORMULATIONS AND METHODS THEREOF” (Scientific Holdings, LLC, priority 2022, published 2023).

Molecules are shown by their SMILES.

`C=C(C)[C@@H]1CCC(C)=C[C@H]1c1c(O)cc(CCCCC)cc1O` [CBD, cannabidiol, reference compound]: the “concentration up to which CBC gives a flowable and stable oil” value (“concentration up” below) in data set [1] was at most 80%.

For the compound `C=C(C)[C@@H]1CCC(C)=C[C@H]1c1c(O)cc(CCCCC)c(C(=O)O)c1O` [CBDA, cannabidiolic acid], the “concentration up” value in data set [1] is recorded as at most 20%.

Turning to `CCCCCc1cc(O)c(C/C=C(\C)CCC=C(C)C)c(O)c1` [CBG, cannabigerol], the “concentration up” value in data set [1] is on record as at most 40%. Further, in data set [2], the “concentration of CBG in a flowable and stable oil made with bisabolol” value is “greater than 60%”.
